In patent US20090181989A1, “Purine Compunds as HSP90 Protein Inhibitors for the Treatment of Cancer” (VERNALIS ( R & D) LTD., priority 2005, published 2009):

These molecules were tested against T1, human full-length HSP90 (Homo sapiens, UniProt P08238) (assay: Fluorescence polarization assay (competitive displacement of fluorescein-labelled probe VER00051001-FAM from HSP90)). Conditions: activity range in the fluorescence polarization assay; E. coli expressed human full-length HSP90 200 nM, probe 80 nM.
T1 construct: E. coli expressed human full-length HSP90 protein; made in house; host or cells: E. coli
T1 sequence (P08238 whole entry): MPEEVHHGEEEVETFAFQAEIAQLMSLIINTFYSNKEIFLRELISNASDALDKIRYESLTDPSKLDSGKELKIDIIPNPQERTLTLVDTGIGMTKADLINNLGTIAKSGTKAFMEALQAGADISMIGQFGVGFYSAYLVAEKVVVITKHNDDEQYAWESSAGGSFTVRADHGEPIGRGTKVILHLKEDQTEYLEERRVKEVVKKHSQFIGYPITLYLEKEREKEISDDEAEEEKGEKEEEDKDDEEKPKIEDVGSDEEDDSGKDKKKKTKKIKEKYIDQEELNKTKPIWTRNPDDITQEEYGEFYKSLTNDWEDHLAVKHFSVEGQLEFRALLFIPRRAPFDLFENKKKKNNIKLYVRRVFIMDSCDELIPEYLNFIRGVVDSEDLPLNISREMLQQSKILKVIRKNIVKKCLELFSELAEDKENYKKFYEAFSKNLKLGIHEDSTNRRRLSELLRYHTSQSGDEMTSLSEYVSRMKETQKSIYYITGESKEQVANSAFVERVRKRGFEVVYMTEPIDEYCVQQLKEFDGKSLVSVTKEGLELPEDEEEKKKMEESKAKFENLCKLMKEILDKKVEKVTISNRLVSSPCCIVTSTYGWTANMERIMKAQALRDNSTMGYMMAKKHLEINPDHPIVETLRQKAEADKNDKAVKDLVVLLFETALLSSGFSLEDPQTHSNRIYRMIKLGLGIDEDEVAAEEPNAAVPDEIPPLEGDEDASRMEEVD
Type: binding
Excerpt: Fluorescence Polarization Assay
Fluorescence polarization {also known as fluorescence anisotropy} measures the rotation of a fluorescing species in solution, where the larger molecule the more polarized the fluorescence emission. When the fluorophore is excited with polarized light, the emitted light is also polarized. The molecular size is proportional to the polarization of the fluorescence emission.
The fluoroscein-labelled probe-VER00051001-FAM-
binds to HSP90 {full-length human, full-length yeast or N-terminal domain HSP90} and the anisotropy {rotation of the probe:protein complex} is measured.
Test compound is added to the assay plate, left to equilibrate and the anisotropy measured again. Any change in anisotropy is due to competitive binding of compound to HSP90, thereby releasing probe.
Chemicals are of the highest purity commercially available and all aqueous solutions are made up in AR water. • 1) Costar 96-well black assay plate #3915 • 2) Assay buffer of (a) 100 mM Tris pH7.4; (b) 20 mM KCl; (c) 6 mM MgCl2. Stored at room temperature. • 3) BSA (bovine serum albumen) 10 mg/ml (New England Biolabs # B9001S) • 4) 20 mM probe in 100% DMSO stock concentration. Stored in the dark at RT. Working concentration is 200 nM diluted in AR water and stored at 4° C. Final concentration in assay 80 nM. • 5) E. coli expressed human full-length HSP90 protein, purified >95% (see, e.g., Panaretou et al., 1998) and stored in 50 μL aliquots at −80° C.
• 1) Add 100 μl 1× buffer to wells 11A and 12A(═FPBLNK) • 2) Prepare assay mix—all reagents are kept on ice with a lid on the bucket as the probe is light-sensitive.
• 3) Aliquot 100 μl assay mix to all other wells • 4) Seal plate and leave in dark at room temp for 20 minutes to equilibrate Compound Dilution Plate—1×3 dilution series • 1) In a clear 96-well v-bottom plate—{# VWR 007/008/257} add 10 μl 100% DMSO to wells B1 to H11 • 2) To wells A1 to A11 add 17.5 μl 100% DMSO • 3) Add 2.5 μl cpd to A1. This gives 2.5 mM {50×} stock cpd—assuming cpds 20 mM. • 4) Repeat for wells A2 to A10. Control in columns 11 and 12. • 5) Transfer 5 μl from row A to row B- not column 12. Mix well. • 6) Transfer 5 μl from row B to row C. […] In column 11 {provides standard curve} only add compound B11-H11. Add 2 μl of 100 mM standard cpd to wells B12-H12 {is positive control} • 13) The Z′ factor is calculated from zero controls and positive wells. It typically gives a value of 0.7-0.9.
The compounds tested in the above assay were assigned to one of two activity ranges, namely A=<10 μM; B=>10 μM, and those assignments are reported above.

IC50 [µM] | SMILES
< 10 | Cc1cc(F)ccc1-c1nc(Cl)nc2[nH]cnc12 [Example 10]
> 10 | CCNC(=O)C(C)(C)Sc1nc(-c2ccc(Cl)cc2Cl)c2nc[nH]c2n1 [Example 21]
< 10 | Clc1nc(-c2cc(OCc3ccccc3)c(Cl)cc2Cl)c2nc[nH]c2n1 [Example 2, 6-(5-Benzyloxy-2,4-dichloro-phenyl)-2-chloro-9H-purine]
< 10 | CCOC(=O)CSc1nc(-c2ccc(Cl)cc2Cl)c2nc[nH]c2n1 [Example 20]
< 10 | Cc1cc(Cl)c(-c2nc(Cl)nc3[nH]cnc23)cc1O [Example 27, 4-Chloro-5-(2-chloro-9H-puriny-6-yl)-2-methyl-phenol]
> 10 | CS(=O)(=O)c1nc(-c2ccc(Cl)cc2Cl)c2nc[nH]c2n1 [Example 25, 6-(2,4-Dichloro-phenyl)-2-methanesulfonyl-7H-purine]
< 10 | CCN(CC)CCOc1cc(-c2nc(Cl)nc3[nH]cnc23)c(Cl)cc1C [Example 28, {2-[4-Chloro-5-(2-chloro-9H-purin-6-yl)-2-methyl-phenoxy]-ethyl}-diethyl-amine]
< 10 | Clc1nc(-c2cc(OCCN3CCCC3)c(Cl)cc2Cl)c2nc[nH]c2n1 [Example 36, 2-Chloro-6-[2,4-dichloro-5-(2-pyrrolidin-1-yl-ethoxy)-phenyl]-9H-purine]
> 10 | Cc1ccc(-c2nc(Cl)nc3[nH]cnc23)c2ccccc12 [Example 4]
< 10 | CN(C)CCSc1nc(-c2ccc(Cl)cc2Cl)c2nc[nH]c2n1 [Example 22]
< 10 | CSc1nc(-c2ccc(Cl)cc2Cl)c2nc[nH]c2n1 [Example 14, 6-(2,4-dichloro-phenyl)-2-methylsulfanyl-9H-purine]
< 10 | CSc1nc(-c2cc(OCc3ccccc3)c(Cl)cc2Cl)c2nc[nH]c2n1 [Example 12, 6-(5-benzyloxy-2,4-dichloro-phenyl)-2-methylsulfanyl-9H-purine]
< 10 | CCNC(=O)CSc1nc(-c2ccc(Cl)cc2Cl)c2nc[nH]c2n1 [Example 16]
< 10 | Clc1nc(-c2ccccc2)c2nc[nH]c2n1 [Example 11]
< 10 | CSc1nc(-c2ccc(F)cc2C)c2nc[nH]c2n1 [Example 15, 6-(2-methyl-4-fluoro-phenyl)-2-methylsulfanyl-9H-purine]
< 10 | N#Cc1ccc(-c2nc(Cl)nc3[nH]cnc23)cc1 [Example 6]
< 10 | Cc1cc(Cl)ccc1-c1nc(Cl)nc2[nH]cnc12 [Example 9]
> 10 | CSc1nc(-c2ccc(C)cc2C)c2nc(Cl)[nH]c2n1 [Example 31, 8-Chloro-6-(2,4-dimethyl-phenyl)-2-methylsulfanyl-9H-purine]

IC50 [µM] | SMILES
< 10 | CCN(CC)Cc1ccc(COc2cc(-c3nc(Cl)nc4[nH]cnc34)c(Cl)cc2Cl)cc1 [Example 24, {4-[2,4-Dichloro-5-(2-chloro-9H-purin-6-yl)-phenoxymethyl]-benzyl}-diethyl-amine]
< 10 | CCNC(=O)CSc1nc(-c2cc(OCCN(CC)CC)c(C)cc2Cl)c2nc[nH]c2n1 [Example 30, 2-{6-[2-Chloro-5-(2-diethlamino-ethoxy)-4-methyl-phenyl]-9H-purin-2-ylsulfanyl}-N-ethyl Acetamide]
< 10 | COc1nc(-c2ccc(Cl)cc2Cl)c2nc[nH]c2n1 [Example 23, 6-(2,4-Dichloro-phenyl)-2-methoxy-9H-purine]
< 10 | O=C1CCCN1CCOc1cc(-c2nc(Cl)nc3[nH]cnc23)c(Cl)cc1Cl [Example 37, 1-{2-[2,4-Dichloro-5-(2-chloro-9H-purin-6-yl)-phenoxy]-ethyl}-pyrrolidin-2-one]
> 10 | CSc1nc(-c2ccc(C)cc2C)c2nc(C#N)[nH]c2n1 [Example 33, 6-(2,4-Dimethyl-phenyl)-2-methylsulfanyl-9H-purine-8-carbonitrile]
< 10 | CCN(CC)CCOc1cc(-c2nc(Cl)nc3[nH]cnc23)c(Cl)cc1Cl [Example 35, {2-[2,4-Dichloro-5-(2-chloro-9H-purin-6-yl)-phenoxy]-ethyl}-diethyl-amine]
< 10 | Cc1ccc(-c2nc(Cl)nc3[nH]cnc23)c(Cl)c1 [Example 8]
< 10 | Clc1ccc(-c2nc(Cl)nc3[nH]cnc23)c(Cl)c1 [Example 1, 2-Chloro-6-(2,4-dichloro-phenyl)-9H-purine]
> 10 | CSc1nc(-c2ccc(C)cc2C)c2nc(C)[nH]c2n1 [Example 32, 6-(2,4-Dimethyl-phenyl)-8-methyl-2-methylsulfanyl-9H-purine]
< 10 | CSc1nc(-c2ccc(Cl)cc2C)c2nc[nH]c2n1 [Example 19]
> 10 | CSc1nc(-c2ccc3ccccc3c2)c2nc[nH]c2n1 [Example 17]
< 10 | CSc1nc(-c2ccc(C#N)cc2)c2nc[nH]c2n1 [Example 13, 6-(4-cyano-phenyl)-2-methylsulfanyl-9H-purine]
> 10 | Clc1nc(-c2ccc3c(c2)CCO3)c2nc[nH]c2n1 [Example 5]
< 10 | Cc1ccc(-c2nc(Cl)nc3[nH]cnc23)c(C)c1 [Example 3]
< 10 | CCN(CC)CCOc1cc(-c2nc(SC)nc3[nH]cnc23)c(Cl)cc1C [Example 29, {2-[4-Chloro-2-methyl-5-(2-methylsulfanyl-9H-purin-6-yl)-phenoxy]-ethyl}-diethyl-amine]
> 10 | C[S+]([O-])c1nc(-c2ccc(Cl)cc2Cl)c2nc[nH]c2n1 (stereo not drawn) [Example 26, 6-(2,4-Dichloro-phenyl)-2-methanesulfinyl-7H-purine]
< 10 | CN(C)CCCOc1cc(-c2nc(Cl)nc3[nH]cnc23)c(Cl)cc1Cl [Example 34, {3-[2,4-Dichloro-5-(2-chloro-9H-purin-6-yl)-phenoxy]-propyl}-dimethyl-amine]
< 10 | Clc1ccc(-c2nc(Sc3nc[nH]n3)nc3[nH]cnc23)c(Cl)c1 [Example 18]
